Data reported in US8084457B2, “Pharmaceutically active 4,6-disubstituted aminopyrimidine derivatives as modulators of protein kinases” (Lead Discovery Center GmbH, priority 2003, dated 2011).
pIC50: −log10 of the molar value.

Columns and labels:
CDK2/CyclinA = target: T1, CDK2/CyclinA (Homo sapiens, UniProt P24941); test: Kinase assay determining CDK2/CyclinA activity; assay type: biochemical; conditions: read-out: CDK2 (activity range)
T1 construct: purchased Proqinase
Experimental: Kinase Assays Determining CDK2/CyclinA and CDK5/p35 Activity:
Kinase assays were performed as described by the manufacturers recommendations (Proqinase for CDK2/CyclinA and Upsate for CDK5/p35).

CDK9/Cyclin T1 = target: T2, CDK9/Cyclin T1 (Homo sapiens, UniProt P50750); test: Kinase assay using CDK9/Cyclin T1; assay type: biochemical; conditions: read-out: CDK9 (activity range)
T2 construct: made in house; host or cells: HEK293 cells, recombinant adenovirus
Text: Cloning of CDK9 and Cyclin T1:
Both cDNA fragments were cloned by PCR into pDONR201 vectors using the gateway recombination system (Invitrogen) according to the manufacturer's recommendations. The fragments were subcloned into a gateway-adapted shuttle vector (pPM7) for production of recombinant adenovirus. All plasmids were verified by restriction digests and sequencing analysis.
Expression and Purification of CDK9/Cyclin T1 Proteins:
Expression and purification was in principle performed as described by Cotten et al. (M. Cotten et al., Nucleic acids research, 2003, 31(28), 128).
Kinase Assay Using CDK9/Cyclin T1:
Kinase assays were performed in principle as described by Cotten et al. (M. Cotten et al., Nucleic acids research, 2003, 31(28), 128).

T2 sequence (P50750 whole entry): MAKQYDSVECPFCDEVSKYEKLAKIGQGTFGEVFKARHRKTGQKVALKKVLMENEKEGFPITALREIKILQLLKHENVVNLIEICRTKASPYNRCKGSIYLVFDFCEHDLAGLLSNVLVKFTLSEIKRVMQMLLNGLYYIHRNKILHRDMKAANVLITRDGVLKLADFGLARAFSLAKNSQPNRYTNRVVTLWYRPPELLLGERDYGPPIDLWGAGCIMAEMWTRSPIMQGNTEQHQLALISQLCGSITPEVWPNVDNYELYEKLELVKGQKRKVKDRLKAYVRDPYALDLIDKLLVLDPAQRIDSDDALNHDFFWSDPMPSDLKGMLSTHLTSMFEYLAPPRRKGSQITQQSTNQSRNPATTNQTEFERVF
T2 sequence (O60563 whole entry partner): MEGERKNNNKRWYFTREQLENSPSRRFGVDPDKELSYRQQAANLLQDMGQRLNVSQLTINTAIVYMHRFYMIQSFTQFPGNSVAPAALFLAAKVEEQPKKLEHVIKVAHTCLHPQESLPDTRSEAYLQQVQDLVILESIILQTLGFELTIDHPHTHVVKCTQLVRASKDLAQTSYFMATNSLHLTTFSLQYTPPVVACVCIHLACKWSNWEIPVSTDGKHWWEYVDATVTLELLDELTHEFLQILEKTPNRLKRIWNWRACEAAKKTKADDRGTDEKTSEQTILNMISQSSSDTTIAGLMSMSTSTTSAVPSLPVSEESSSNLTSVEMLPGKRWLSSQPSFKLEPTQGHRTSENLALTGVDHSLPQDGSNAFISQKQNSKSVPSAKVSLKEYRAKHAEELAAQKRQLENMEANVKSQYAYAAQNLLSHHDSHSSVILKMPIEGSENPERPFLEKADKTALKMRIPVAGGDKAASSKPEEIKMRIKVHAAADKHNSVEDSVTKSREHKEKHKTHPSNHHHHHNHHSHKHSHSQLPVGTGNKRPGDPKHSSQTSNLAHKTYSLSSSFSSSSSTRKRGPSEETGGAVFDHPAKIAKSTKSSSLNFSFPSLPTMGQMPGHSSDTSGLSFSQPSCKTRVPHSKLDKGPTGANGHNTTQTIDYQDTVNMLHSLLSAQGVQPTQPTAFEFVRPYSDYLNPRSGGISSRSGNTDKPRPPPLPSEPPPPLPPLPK

| pIC50 (CDK2/CyclinA) | pIC50 (CDK9/Cyclin T1) | Compound |
| --- | --- | --- |
| 5.00 to 6.00 | 6.00 to 9.00 | COc1ccccc1-c1cc(Nc2ccc(NC(=O)Cc3ccccc3)cc2)ncn1 [(71)] |
| 3.60 to 5.00 | 3.60 to 5.00 | CN1CCC(Nc2cc(Nc3ccc(NC(=O)C(C)(C)C)cc3)ncn2)CC1 [(74)] |
| 3.60 to 5.00 | 5.00 to 6.00 | Nc1ccc(C(=O)Nc2ccc(Nc3cc(-c4ccccc4)ncn3)cc2)cc1 [(76)] |
| 3.60 to 5.00 | 5.00 to 6.00 | Nc1ccc(C(=O)Nc2ccc(Nc3cc(-c4cccs4)ncn3)cc2)cc1 [(77)] |
| 3.60 to 5.00 | 3.60 to 5.00 | CC(C)(C)C(=O)Nc1ccc(Nc2cc(NCCN)ncn2)cc1 [(79)] |
| 3.60 to 5.00 | 3.60 to 5.00 | CC(C)(C)C(=O)Nc1ccc(Nc2cc(NCCCO)ncn2)cc1 [(80)] |
| 3.60 to 5.00 | 5.00 to 6.00 | COc1ccccc1-c1cc(Nc2ccc(NC(=O)c3nc4ccccc4s3)cc2)ncn1 [(84)] |
| 5.00 to 6.00 | 6.00 to 9.00 | CC(C)(C)C(=O)Nc1ccc(Nc2cc(-c3ccccc3OCc3ccccc3)ncn2)cc1 [(85)] |
| 5.00 to 6.00 | 6.00 to 9.00 | COc1ccccc1-c1cc(Nc2ccc(NC(=O)[C@@H]3CCN3)cc2)ncn1 [(90)] |
| 3.60 to 5.00 | 3.60 to 5.00 | COc1ccc(-c2cc(NCCc3ccncc3)ncn2)cc1 [(92)] |
| 3.60 to 5.00 | 5.00 to 6.00 | COc1ccccc1-c1cc(NCCc2ccncc2)ncn1 [(93)] |
| 3.60 to 5.00 | 5.00 to 6.00 | Oc1ccccc1-c1cc(NCCc2ccncc2)ncn1 [(94)] |
| 5.00 to 6.00 | 5.00 to 6.00 | COc1ccccc1-c1cc(N(C)c2ccc(NS(=O)(=O)c3ccc(C)cc3)cc2)ncn1 [(96)] |
| 3.60 to 5.00 | 5.00 to 6.00 | COc1ccccc1-c1cc(Nc2ccc(NC(=O)c3ccc(N)cc3)cc2)nc(N)n1 [(97)] |
| 3.60 to 5.00 | 6.00 to 9.00 | COc1ccccc1-c1cc(Nc2ccc(NC(=O)c3ccc4ccccc4n3)cc2)ncn1 [(98)] |
| 5.00 to 6.00 | 6.00 to 9.00 | CC(C)Oc1ccccc1-c1cc(NCCc2ccncc2)ncn1 [(99)] |

| pIC50 (CDK2/CyclinA) | pIC50 (CDK9/Cyclin T1) | Compound |
| --- | --- | --- |
| 5.00 to 6.00 | 5.00 to 6.00 | COc1cccc(-c2cc(Nc3ccc(C)c(NS(C)(=O)=O)c3)ncn2)c1 [(100)] |
| 5.00 to 6.00 | 6.00 to 9.00 | COc1ccccc1-c1cc(Nc2ccc(NC(=O)C(c3ccccc3)N(C)C)cc2)ncn1 (centres unmarked) [(101)] |
| 6.00 to 9.00 | 5.00 to 6.00 | Cc1ccc(Nc2cc(-c3cccc(NS(C)(=O)=O)c3)ncn2)cc1NS(C)(=O)=O [(108)] |
| 5.00 to 6.00 | 6.00 to 9.00 | Cc1ccc(Nc2cc(-c3cccc(N)c3)ncn2)cc1NS(=O)(=O)c1ccccc1 [(109)] |
| 5.00 to 6.00 | 5.00 to 6.00 | Cc1ccc(Nc2cc(-c3cncnc3)ncn2)cc1NS(C)(=O)=O [(110)] |
| 3.60 to 5.00 | 6.00 to 9.00 | COc1ccccc1-c1cc(Nc2ccc(NC(=O)NCc3ccc(C)cc3)cc2)ncn1 [(112)] |
| 5.00 to 6.00 | 6.00 to 9.00 | COc1ccccc1-c1cc(Nc2ccc(NC(=O)NC(C)(C)C)cc2)ncn1 [(113)] |
| 3.60 to 5.00 | 3.60 to 5.00 | CC(C)(C)C(=O)Nc1ccc(Nc2cc(-c3ccccc3C(F)(F)F)ncn2)cc1 [(114)] |
| 6.00 to 9.00 | 6.00 to 9.00 | COc1ccccc1-c1cc(Nc2cccc(C(N)=O)c2)ncn1 [(115)] |
| 6.00 to 9.00 | 6.00 to 9.00 | CCCS(=O)(=O)Nc1cc(Nc2cc(-c3cccc(N)c3)ncn2)ccc1C [(116)] |
| 6.00 to 9.00 | 5.00 to 6.00 | Nc1cccc(-c2cc(Nc3ccc(S(N)(=O)=O)cc3)ncn2)c1 [(117)] |
| 3.60 to 5.00 | 3.60 to 5.00 | COc1ccccc1-c1cc(Nc2ccc(NC(=O)C(C)(C)C)cc2C)ncn1 [(119)] |
| 5.00 to 6.00 | 5.00 to 6.00 | CS(=O)(=O)Nc1cc(Nc2cc(-c3cccc(N)c3)ncn2)ccc1OCc1ccccc1 [(120)] |
| 5.00 to 6.00 | 6.00 to 9.00 | CS(=O)(=O)Nc1cccc(Nc2cc(-c3cccc(N)c3)ncn2)c1 [(121)] |
| 5.00 to 6.00 | 5.00 to 6.00 | COc1ccccc1-c1cc(Nc2cccc(NC(=O)C(C)(C)C)c2)ncn1 [(122)] |

The next lines start with the compound.

| Compound | pIC50 (CDK2/CyclinA) | pIC50 (CDK9/Cyclin T1) |
| --- | --- | --- |
| COc1ccccc1-c1cc(Nc2ccc(NS(=O)(=O)c3ccc(C(C)C)cc3)cc2)ncn1 [(23)] | 5.00 to 6.00 | 6.00 to 9.00 |
| Cc1ccc(S(=O)(=O)Nc2ccc(Nc3cc(Cl)ncn3)cc2)cc1 [(24)] | 5.00 to 6.00 | 3.60 to 5.00 |
| Nc1ccc(C(=O)Nc2ccc(Nc3cc(Cl)ncn3)cc2)cc1 [(25)] | 3.60 to 5.00 | 3.60 to 5.00 |
| COc1ccccc1-c1cc(N(C)c2ccc(N)cc2)ncn1 [(26)] | 5.00 to 6.00 | 5.00 to 6.00 |
| COC(=O)CN(c1ccc(Nc2cc(-c3ccc(O)cc3)ncn2)cc1)S(=O)(=O)c1ccc(C)cc1 [(27)] | 6.00 to 9.00 | 5.00 to 6.00 |
| COC(=O)CN(c1ccc(Nc2cc(-c3ccccc3OC)ncn2)cc1)S(=O)(=O)c1ccc(C)cc1 [(28)] | 5.00 to 6.00 | 5.00 to 6.00 |
| COc1ccccc1-c1cc(Nc2ccc(NC(=O)[C@@H]3CCCCN3C(=O)OC(C)(C)C)cc2)ncn1 [(29)] | 5.00 to 6.00 | 6.00 to 9.00 |
| COc1ccc(-c2cc(Nc3ccc(NC(=O)c4ccc(N)cc4)cc3)ncn2)c(OC)c1 [(31)] | 6.00 to 9.00 | 6.00 to 9.00 |
| Nc1ccc(C(=O)Nc2ccc(Nc3cc(/C=C/c4ccccc4)ncn3)cc2)cc1 [(32)] | 3.60 to 5.00 | 3.60 to 5.00 |
| COc1ccccc1-c1cc(Nc2ccc(NS(=O)(=O)c3ccc(-c4ccccc4)cc3)cc2)ncn1 [(34)] | 5.00 to 6.00 | 5.00 to 6.00 |
| COc1ccc(C(C)C)cc1-c1cc(Nc2ccc(NC(=O)c3ccc(N)cc3)cc2)ncn1 [(35)] | 3.60 to 5.00 | 3.60 to 5.00 |
| COc1ccccc1-c1cc(Nc2ccc(NC(=O)C3CC4CCC3C4)cc2)ncn1 (centres unmarked) [(36)] | 3.60 to 5.00 | 6.00 to 9.00 |
| COc1ccccc1-c1cc(Nc2ccc(NC(=O)C(c3ccccc3)C(C)C)cc2)ncn1 (centres unmarked) [(37)] | 3.60 to 5.00 | 5.00 to 6.00 |
| COc1ccccc1-c1cc(Nc2ccc(NC(=O)NC3CCCCC3)cc2)ncn1 [(38)] | 5.00 to 6.00 | 6.00 to 9.00 |
| COc1ccc(Cl)cc1-c1cc(Nc2ccc(NC(=O)c3ccc(N)cc3)cc2)ncn1 [(39)] | 3.60 to 5.00 | 5.00 to 6.00 |
| Cc1ccc(S(=O)(=O)Nc2ccc(Nc3cc(-c4cccc(/C=C/C(=O)O)c4)ncn3)cc2)cc1 [(40)] | 3.60 to 5.00 | 3.60 to 5.00 |
| COc1ccccc1-c1cc(Nc2ccc(NC(=O)C3CCCCC3)cc2)ncn1 [(41)] | 3.60 to 5.00 | 5.00 to 6.00 |
| COc1ccccc1-c1cc(Nc2ccc(NC(=O)CC(C)(C)C)cc2)ncn1 [(42)] | 5.00 to 6.00 | 5.00 to 6.00 |
| Nc1ccc(C(=O)Nc2ccc(Nc3cc(NCC4CCCCC4)ncn3)cc2)cc1 [(43)] | 3.60 to 5.00 | 5.00 to 6.00 |
| COc1ccccc1-c1cc(Nc2ccc(C(=O)NC3CCCCC3)cc2)ncn1 [(44)] | 5.00 to 6.00 | 6.00 to 9.00 |

| Compound | pIC50 (CDK2/CyclinA) | pIC50 (CDK9/Cyclin T1) |
| --- | --- | --- |
| COc1ccccc1-c1cc(Nc2ccc(NC(=O)c3ccc(C(C)(C)C)cc3)cc2)ncn1 [(45)] | 3.60 to 5.00 | 5.00 to 6.00 |
| COc1ccccc1-c1cc(Nc2ccc(NC(=O)C3(NC(=O)OC(C)(C)C)CCCC3)cc2)ncn1 [(47)] | 3.60 to 5.00 | 6.00 to 9.00 |
| COc1ccccc1-c1cc(Nc2ccc(NC(=O)CC3CCCCN3C(=O)OC(C)(C)C)cc2)ncn1 (centres unmarked) [(48)] | 5.00 to 6.00 | 5.00 to 6.00 |
| COc1ccccc1-c1cc(Nc2ccc(NC(=O)c3ccc(N4CCN(C)CC4)cc3)cc2)ncn1 [(49)] | 5.00 to 6.00 | 6.00 to 9.00 |
| COc1ccccc1-c1cc(Nc2ccc(NC(=O)c3ccncc3)cc2)ncn1 [(50)] | 3.60 to 5.00 | 5.00 to 6.00 |
| COc1cccc(OC)c1-c1cc(Nc2ccc(NC(=O)c3ccc(N)cc3)cc2)ncn1 [(51)] | 3.60 to 5.00 | 5.00 to 6.00 |
| COc1ccccc1-c1cc(Nc2ccc(C(=O)Nc3ccccc3)cc2)ncn1 [(52)] | 3.60 to 5.00 | 6.00 to 9.00 |
| COc1ccccc1-c1cc(Nc2ccc(NC(=N)N)cc2)ncn1 [(53)] | 5.00 to 6.00 | 5.00 to 6.00 |
| COc1ccccc1-c1cc(Nc2ccc(C(=O)NC(C)(C)C)cc2)ncn1 [(54)] | 5.00 to 6.00 | 5.00 to 6.00 |
| CCOc1ccccc1-c1cc(Nc2ccc(NC(=O)c3ccc(N)cc3)cc2)ncn1 [(55)] | 5.00 to 6.00 | 6.00 to 9.00 |
| COc1cccc(-c2cc(Nc3ccc(NC(=O)c4ccc(N)cc4)cc3)ncn2)c1OC [(56)] | 5.00 to 6.00 | 5.00 to 6.00 |
| COc1ccc(OC)c(-c2cc(Nc3ccc(NC(=O)c4ccc(N)cc4)cc3)ncn2)c1 [(57)] | 3.60 to 5.00 | 3.60 to 5.00 |
| CC(C)Oc1ccccc1-c1cc(Nc2ccc(NC(=O)c3ccc(N)cc3)cc2)ncn1 [(58)] | 6.00 to 9.00 | 6.00 to 9.00 |
| Nc1ccc(C(=O)Nc2ccc(Nc3cc(NCCO)ncn3)cc2)cc1 [(60)] | 3.60 to 5.00 | 5.00 to 6.00 |
| COc1ccccc1-c1cc(Nc2ccc(NC(=O)C34CC5CC(CC(C5)C3)C4)cc2)ncn1 [(61)] | 3.60 to 5.00 | 5.00 to 6.00 |
| COc1ccccc1-c1cc(Nc2ccc(-c3nc4ccccc4o3)cc2)ncn1 [(62)] | 3.60 to 5.00 | 3.60 to 5.00 |
| COc1ccccc1-c1cc(Nc2ccc(-c3nc4ccccc4[nH]3)cc2)ncn1 [(63)] | 6.00 to 9.00 | 6.00 to 9.00 |
| Nc1ccc(C(=O)Nc2ccc(Nc3cc(-c4ccncc4)ncn3)cc2)cc1 [(67)] | 3.60 to 5.00 | 3.60 to 5.00 |
| COc1ccccc1-c1cc(Nc2ccc(NC(=O)c3cn(C)cn3)cc2)ncn1 [(70)] | 5.00 to 6.00 | 6.00 to 9.00 |
